Assay in all cases: inhibition of tumour cell growth, NCI panel, 48 h
Experiment [1] relates to NCI-H460.
Experiment [2] deals with HOP-92.
For experiment [3], the system named is HCT-15.
The test system of experiment [4] is HCC 2998.
In experiment [5] the test system is SW-620.
Experiment [6] deals with Malme-3M.
The test system of experiment [7] is LOX IMVI.
Experiment [8] concerns SF-268.
Experiment [9] concerns A549.
Experiment [10] relates to DU-145.
Experiment [11] has as its system HT-29.
In experiment [12] the test system is SK-MEL-28.
Experiment [13] relates to SK-MEL-2.
In experiment [14] the test system is MDA-MB-231.
The test system of experiment [15] is ACHN.
The test system of experiment [16] is EKVX.
Experiment [17] relates to UO-31.
In experiment [18] the test system is UACC-257.
The subject of experiment [19] is SK-MEL-5.
The test system of experiment [20] is Hs-578T.

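Results reflect a 48-hour exposure of cells in 96-well plates to compound at five concentrations. The concentration for 50% growth inhibition is given as GI50.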 Active and inactive are the calls of the source. Cut-off read from the data, not from the text of the source: active = GI50 up to about 1.1 µM and inactive = higher. A value given as a limit tells only on which side of the number the result lay.

As for `Sc1nnc(COc2ccc(Cl)cc2)n1-c1ccccc1`, the GI50 is > 100 µM (inactive) in experiment [1]; > 100 µM (inactive) in experiment [2]; above 100 µM in experiment [3]; > 100 µM (inactive) in [4]; > 100 µM (inactive) in experiment [5]; > 100 µM (inactive) in experiment [6]. Moreover, the GI50 in [7] was 49.3 µM (inactive); in [8], > 100 µM (inactive); in experiment [9], > 100 µM (inactive); in [10], > 100 µM (inactive); in experiment [11] it was > 100 µM (inactive); in experiment [12], > 100 µM (inactive). The GI50 in experiment [13] was > 100 µM (inactive); in [14] it was > 100 µM (inactive); in experiment [15], > 100 µM (inactive); in [16], > 100 µM (inactive); in experiment [17], 61.2 µM (inactive); in experiment [18], > 100 µM (inactive).

Turning to `O=C1CC(c2ccccc2)n2c(nc3ccccc32)N1` (centres undefined), the GI50 in experiment [19] was 20.5 µM (inactive); in [1] it was > 100 µM (inactive); in [2], 17.9 µM (inactive); in [3] it was 46.8 µM; in experiment [5] it was 51.9 µM (inactive); in [6] it was 38.1 µM (inactive). The GI50 in experiment [7] was 39.4 µM (inactive); in experiment [8], > 100 µM (inactive); in experiment [9], > 100 µM (inactive); in experiment [11] it was > 100 µM (inactive); in [13], 18.9 µM (inactive); in experiment [14] it was > 100 µM (inactive). Moreover, the GI50 is > 100 µM (inactive) in experiment [15]; 73.5 µM (inactive) in experiment [16]; > 100 µM (inactive) in [17]; 76.9 µM (inactive) in [20]; 41.9 µM (inactive) in experiment [18].

For `Oc1ccc2c(c1)-c1c(c3ccccc3n1CCN1CCOCC1)CC2`, the GI50 in experiment [19] was 40.6 µM (inactive); in [1], > 100 µM (inactive); in [3], 39.7 µM; in [5], > 10 µM (inactive); in [6], 31.3 µM (inactive); in experiment [7] it was 39.7 µM (inactive). For the same molecule, the GI50 in experiment [8] was 59.4 µM (inactive); in experiment [10], 46 µM (inactive); in experiment [11], 39.6 µM (inactive); in experiment [13], 25 µM (inactive); in experiment [14], > 100 µM (inactive); in experiment [15] it was 23.1 µM (inactive). For the same molecule, the GI50 in [16] was 53.2 µM (inactive); in [17], 33.9 µM (inactive); in experiment [20], 63.4 µM (inactive); in [18] it was 27.9 µM (inactive).

For `O=C1N/N=C\c2ccc(cc2)OCc2cccc(n2)COc2ccc(cc2)/C=N\NC1=O`, the GI50 is > 25 µM (inactive) in experiment [1]; > 25 µM (inactive) in experiment [2]; above 25 µM in experiment [3]; > 25 µM (inactive) in experiment [5]; > 25 µM (inactive) in [6]; > 25 µM (inactive) in experiment [8]. Also, the GI50 in experiment [9], in experiment [10], in experiment [11], in [12], in experiment [13] and in experiment [14] was > 25 µM (inactive) throughout. Moreover, the GI50 in experiment [15] is > 25 µM (inactive); in [16], > 25 µM (inactive); in [17] it was > 25 µM (inactive); in experiment [20], 13.6 µM (inactive); in [18], > 25 µM (inactive).

In the case of `COc1cc2c(c(OC)c1OC)-c1ccc(SC)cc1C(O)CC2` (centres undefined), the GI50 in experiment [19] is < 0.01 µM (active); in experiment [1], < 0.01 µM (active); in [2] it was > 100 µM (inactive); in experiment [3], below 0.01 µM; in [4] it was < 0.01 µM (active); in experiment [5], < 0.01 µM (active). Moreover, the GI50 in experiment [6] was 0.0132 µM (active); in [7], < 0.01 µM (active); in [8], < 0.01 µM (active); in experiment [9], < 0.01 µM (active); in [10] it was < 0.01 µM (active); in [12], 55.6 µM (inactive). In addition, the GI50 is > 100 µM (inactive) in [13], 0.394 µM (active) in [14], < 0.01 µM (active) in experiment [15] and 2.54 µM (inactive) in experiment [16].

For `COc1ccc(C2SCC(=O)N2c2ccc(-c3ccc(-n4c(-c5ccccc5)nc5ccccc5c4=O)cc3)cc2)cc1OC` (centres undefined), the GI50 was 32.8 µM (inactive) in [1]; > 100 µM (inactive) in experiment [2]; above 100 µM in experiment [3]; 73.5 µM (inactive) in experiment [5]; 81.8 µM (inactive) in experiment [6]; 17.8 µM (inactive) in experiment [7]. Further, the GI50 is 43.5 µM (inactive) in experiment [8]; 27.9 µM (inactive) in experiment [9]; 98.2 µM (inactive) in experiment [10]; 45.2 µM (inactive) in experiment [11]; 57 µM (inactive) in experiment [12]; 25.8 µM (inactive) in [14]. The GI50 in experiment [16] is 81.8 µM (inactive); in experiment [17], 44.2 µM (inactive); in experiment [20] it was 69.5 µM (inactive); in experiment [18] it was 61.5 µM (inactive).

Regarding `C=C1c2c(n(S(=O)(=O)c3ccccc3)c3ccccc23)[C@@]2(C(=O)OC)CC3C=CC2N1C3`, the GI50 is > 100 µM (inactive) in experiment [1]; > 100 µM (inactive) in [2]; above 100 µM in experiment [3]; > 100 µM (inactive) in [4]; > 100 µM (inactive) in experiment [5]; > 100 µM (inactive) in experiment [6]. In addition, the GI50 in [7], in experiment [8], in [9], in [10], in experiment [11] and in experiment [12] was > 100 µM (inactive) throughout. Moreover, the GI50 in experiment [13], in [14], in experiment [15], in experiment [16] and in [18] was > 100 µM (inactive) each time.

For the molecule `COC(=O)[C@@H]1CC(C(CN)c2cn(C(=O)OC(C)(C)C)c3ccccc23)C(=O)N1C(=O)OC(C)(C)C` (some centres undefined), the GI50 in [19] is 17.2 µM (inactive); in experiment [1], 23.6 µM (inactive); in experiment [3] it was 28.1 µM; in experiment [5], 50.7 µM (inactive); in experiment [6] it was 22.2 µM (inactive); in experiment [7] it was 14.8 µM (inactive). The GI50 in experiment [8] was 27.5 µM (inactive); in experiment [9], 35.3 µM (inactive); in experiment [10] it was 44.2 µM (inactive); in experiment [11], 24.8 µM (inactive); in experiment [12], 17.3 µM (inactive); in experiment [13] it was 22.4 µM (inactive). In addition, the GI50 is 22.4 µM (inactive) in experiment [14]; 29.3 µM (inactive) in experiment [15]; 19.4 µM (inactive) in experiment [16]; 32.4 µM (inactive) in experiment [17]; 28.2 µM (inactive) in experiment [20]; 17.7 µM (inactive) in experiment [18].

For the molecule `CC(C)NC(=O)OCc1c(COC(=O)NC(C)C)c(-c2cc[n+](COC(=O)CC(C)(C)C)cc2)n2c1CCC2`, the GI50 was > 100 µM (inactive) in experiment [19]; > 100 µM (inactive) in [2]; above 100 µM in experiment [3]; > 100 µM (inactive) in experiment [4]; > 100 µM (inactive) in experiment [5]; > 100 µM (inactive) in experiment [9]. In addition, the GI50 in experiment [14], in experiment [16], in [17], in experiment [20] and in [18] was > 100 µM (inactive) each time.

Regarding `CC1=C/C(=N\NS(=O)(=O)c2ccc([N+](=O)[O-])cc2)CC(C)(C)C1`, the GI50 in experiment [19] was 66.1 µM (inactive); in experiment [1] it was 51.6 µM (inactive); in experiment [2], 10.4 µM (inactive); in experiment [3], 49.8 µM; in experiment [4], > 100 µM (inactive); in experiment [5] it was > 100 µM (inactive). The GI50 in experiment [6] was > 100 µM (inactive); in [7] it was > 100 µM (inactive); in experiment [8], 83.6 µM (inactive); in [9], 48.8 µM (inactive); in experiment [10], > 100 µM (inactive); in experiment [12] it was > 100 µM (inactive). Also, the GI50 is > 100 µM (inactive) in experiment [13]; > 100 µM (inactive) in experiment [14]; 54.6 µM (inactive) in experiment [15]; > 100 µM (inactive) in experiment [16]; 80.7 µM (inactive) in experiment [17]; 80.5 µM (inactive) in experiment [18].

For `Cc1nc2c(=O)[nH]c3ccc(Cl)cc3c2o1`, the GI50 is > 100 µM (inactive) in experiment [19]; > 100 µM (inactive) in experiment [1]; > 100 µM (inactive) in experiment [2]; above 100 µM in experiment [3]; > 100 µM (inactive) in experiment [4]; > 100 µM (inactive) in [5]. The GI50 in experiment [6], in experiment [7], in [8], in experiment [9], in [11] and in [13] was > 100 µM (inactive) throughout. Also, the GI50 in experiment [14] is > 100 µM (inactive); in [15] it was > 100 µM (inactive); in experiment [16] it was 69.7 µM (inactive); in experiment [17] it was > 100 µM (inactive); in experiment [20], > 100 µM (inactive); in experiment [18], > 100 µM (inactive).

For the molecule `CCOC(=O)N(CC)c1c(C(F)(F)F)cc(-c2ccccc2)[nH]c1=O`, the GI50 in experiment [19] is 41.7 µM (inactive); in [1], 45.1 µM (inactive); in [2], 50.7 µM (inactive); in experiment [3], 40.6 µM; in experiment [4], 54.2 µM (inactive); in [5], 54.7 µM (inactive). For the same molecule, the GI50 is 68.4 µM (inactive) in experiment [7]; 45.3 µM (inactive) in [9]; 72.3 µM (inactive) in experiment [10]; 61.1 µM (inactive) in [11]; 70.6 µM (inactive) in experiment [12]; 72.6 µM (inactive) in [13]. Also, the GI50 in experiment [14] was > 100 µM (inactive); in experiment [15], 58.6 µM (inactive); in experiment [16] it was 33.5 µM (inactive); in experiment [17], 56.1 µM (inactive); in experiment [18], 48.3 µM (inactive).

These data come from ChEMBL document CHEMBL1201862, “PubChem BioAssay data set” (2004).
